The target in assay [1] is phosphoinositide-specific phospholipase C. Kind of assay: Inhibition of Phosphoinositide-specific Phospholipase C. Conditions: procedure of Bennett et al, Molecular Pharmacology 32:587-593 (1987); read-out: PLC IC50. Format: biochemical. An excerpt: Inhibition of Phosphoinositide-specific Phospholipase C
The effect of compounds of this invention on phosphoinositide-specific phospholipase C may be determined by procedures described by Bennett et al, Molecular Pharmacology 32:587-593 (1987).

The target of assay [2] is bee venom phospholipase A2 (Apis mellifera, UniProt P00630). Kind of assay: biochemical. Conditions: read-out: PLA2 IC50.
Sequence of bee venom phospholipase A2 (P00630 34-167 limits assumed): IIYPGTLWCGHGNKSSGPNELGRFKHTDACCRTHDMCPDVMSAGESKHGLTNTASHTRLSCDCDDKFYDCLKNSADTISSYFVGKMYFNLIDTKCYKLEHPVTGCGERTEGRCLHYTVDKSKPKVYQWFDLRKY

Structures are written as SMILES.

Usually IC50 stands for the midpoint of a concentration-inhibition curve. Take `CC(=CCCC1=CCC(C2=CC(=O)OC2O)OC1O)CCC1=C(C)CCCC1(C)C` (centres unmarked) [manoalide, Manoalide, reference compound]: the IC50 in assay [1] came to 3000 nM.

Take `CCCCCCCCCCCCC(OC(=O)CCCC(=O)OC(CCCCCCCCCCCC)C1=CC(=O)OC1O)C1=CC(=O)OC1O` (centres unmarked) [Compound 2]: in assay [2], the IC50 stood at 30 nM.

Take `CCCCCCC(OC(=O)CC(=O)OC(CCCCCC)C1=CC(=O)OC1O)C1=CC(=O)OC1O` (centres unmarked) [Compound 4, Di[(1-5-hydroxy-2(5H)2-oxo-4-furyl)heptyl]malonate]: in assay [2], the IC50 is 30 nM.

On to `CCCCCCCCCCCCC(OC(=O)CC(=O)OC(CCCCCCCCCCCC)C1=CC(=O)OC1O)C1=CC(=O)OC1O` (centres unmarked) [Compound 1, Bis[1-(5-hydroxy-2(5H)-furano-4-yl)tridecyl]malonate], for which the concentration for half-maximal inhibition (IC50) amounted to 2000 nM in assay [1] and 20 nM in assay [2].

The values above are taken from patent publication US5169963A, “Di-(5-hydroxy-2(5H)2-oxo-4-furyl)alkylmethyl-alpha,omega alkanedioates and N,N-bis-(5-hydroxy-2(5H)2-oxo-4-furyl)alkylmethyl-alpha,omega-dialkanoic acid amides as anti-inflammatory agents” (Allergan, Inc., priority 1991, dated 1992).
